Consider 1 compound from US12265087B2, “Olfactory receptor as microglia marker and use thereof” (DAEGU GYEONGBUK INSTITUTE OF SCIENCE AND TECHNOLOGY, priority 2019, dated 2025).

SMILES strings stand for the structures.

The assay relates to primary microglia. Put plainly: Boyden chamber chemotaxis of primary microglia. In kind it is cell-based, mouse. The conditions noted are these: 100, 300 and 500 μM. The protocol:
In this example, microglia or astrocytes were primarily extracted from the cerebral cortex of E18.5 mouse embryos (Tamashiro et al., 2012), and cultured as described in Example 1. More specifically, the mouse embryonic cortex was collected, stored in a cold supernatant (#14170-112; Thermo Fisher Scientific), and pretreated in a 0.25% trypsin solution (#15090-046; Thermo Fisher Scientific) at 37° C. for 20 minutes. Afterward, cells were plated in a minimum nutrient medium supplemented with 10% FBS (#SH30919.03; Hyclone), 2 mM L-glutamine (#25030-081; Thermo Fisher Scientific), 0.04% glucose (#G7021; Sigma Aldrich), and 1% penicillin/streptomycin (#15140-122; Thermo Fisher Scientific), and filtered through a […] strainer (#352340; Thermo Fisher Scientific). The microglia were plated at a density of 1.2×10^7 cells in a T75 flask coated with poly-D-lysine (#P7280; Sigma Aldrich). […] Purities of the collected microglia and astrocytes were evaluated by qRT-PCR assay and immunocytochemistry using a marker gene and proteins such as Iba-1 and Gfap.
Chemotaxis was measured using a multi-well Boyden chamber. […] The migrated cells were counted under a light microscope in five randomly selected fixed […] fields (200×) using a scored eyepiece. […]

On to `CCCCCc1ccco1` [2-PF, 2-pentylfuran], for which the chemotaxis result was “significantly increased in a concentration-dependent manner”.
